Some results are limits rather than exact numbers.

One data set concerns the target P110 δ/Pi3K δ (Homo sapiens, UniProt O00329). Kind of data set: Fluorescent (HTRF) determination of PI3K enzyme activity, δ isoform. The class given is biochemical. The settings on record: for IC50: read-out: P110 δ/Pi3K δ IC 50 nM. Also noted: inhibition: dose or concentration left out as unconfirmed. An excerpt: Assay 1: Fluorescent determination of PI3Kinase Kinase enzyme activity
Phosphoinositide 3 kinases (PI3K) belong to a class of lipid kinases that play a critical role in the regulation of several key cellular processes. The PI3K are capable of phosphorylating the 3-hydroxy position of phosphoinositols thereby generating second messengers involved in downstream signalling events. The homogenous time resolved fluorescence (HTRF) assay allows detection of 3,4,5-triphosphate (PIP3) formed as a result of phosphorylation of phosphotidylinositol 4,5-biphosphate (PIP2) by PI3K isoforms such as α, β, γ or δ.
PI3K isoform activity for α, β, γ or δ was determined using a PI3K human HTRF™ Assay Kit (Millipore, Billerica, Mass.) with modifications. All incubations were carried out at room temperature. […] After the initial incubation, 5 μl/well of 400 μM ATP was added and incubated for an additional 30 minutes. Reaction was terminated by adding 5 μl/well stop solution (Millipore, Billerica, Mass.). Five microliters of detection mix (Millipore, Billerica, Mass.) were then added to each well and was incubated for 6-18 h in the dark. […] Data were analyzed using Graphpad Prism (Graphpad software; San Diego Calif.) for IC50 determination. Percent inhibition was calculated based on the values for the blank and enzyme controls.
A general note: Time-resolved FRET reads energy transfer from a long-lived donor to a nearby acceptor.

Chain of P110 δ/Pi3K δ (O00329 whole entry, canonical isoform): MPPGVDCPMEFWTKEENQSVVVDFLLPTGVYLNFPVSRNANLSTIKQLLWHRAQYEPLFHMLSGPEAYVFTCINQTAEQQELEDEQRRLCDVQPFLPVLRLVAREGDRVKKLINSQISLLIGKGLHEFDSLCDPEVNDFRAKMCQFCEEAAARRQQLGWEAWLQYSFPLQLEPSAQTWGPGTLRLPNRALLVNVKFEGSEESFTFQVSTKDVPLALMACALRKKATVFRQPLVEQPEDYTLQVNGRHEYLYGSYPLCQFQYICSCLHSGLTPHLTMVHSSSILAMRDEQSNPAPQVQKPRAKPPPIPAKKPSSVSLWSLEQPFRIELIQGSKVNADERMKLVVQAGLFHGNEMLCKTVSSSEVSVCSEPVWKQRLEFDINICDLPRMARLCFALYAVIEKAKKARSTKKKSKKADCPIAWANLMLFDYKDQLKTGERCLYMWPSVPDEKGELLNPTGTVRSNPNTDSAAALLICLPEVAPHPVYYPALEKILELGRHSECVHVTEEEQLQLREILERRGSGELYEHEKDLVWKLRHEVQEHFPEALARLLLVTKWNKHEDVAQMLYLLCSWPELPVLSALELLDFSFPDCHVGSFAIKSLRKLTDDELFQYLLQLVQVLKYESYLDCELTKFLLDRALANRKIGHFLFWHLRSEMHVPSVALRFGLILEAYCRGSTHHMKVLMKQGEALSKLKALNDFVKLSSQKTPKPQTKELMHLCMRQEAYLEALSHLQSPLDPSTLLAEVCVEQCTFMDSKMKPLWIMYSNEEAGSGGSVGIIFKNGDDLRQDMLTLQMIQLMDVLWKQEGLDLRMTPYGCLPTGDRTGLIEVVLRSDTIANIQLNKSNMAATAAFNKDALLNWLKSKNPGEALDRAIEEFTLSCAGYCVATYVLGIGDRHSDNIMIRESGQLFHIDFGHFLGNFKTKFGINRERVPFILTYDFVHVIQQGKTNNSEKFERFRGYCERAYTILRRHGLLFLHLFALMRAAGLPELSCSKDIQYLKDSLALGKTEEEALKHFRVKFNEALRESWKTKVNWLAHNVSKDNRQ
Chain of P110 δ/Pi3K δ (P27986 whole entry partner, canonical isoform): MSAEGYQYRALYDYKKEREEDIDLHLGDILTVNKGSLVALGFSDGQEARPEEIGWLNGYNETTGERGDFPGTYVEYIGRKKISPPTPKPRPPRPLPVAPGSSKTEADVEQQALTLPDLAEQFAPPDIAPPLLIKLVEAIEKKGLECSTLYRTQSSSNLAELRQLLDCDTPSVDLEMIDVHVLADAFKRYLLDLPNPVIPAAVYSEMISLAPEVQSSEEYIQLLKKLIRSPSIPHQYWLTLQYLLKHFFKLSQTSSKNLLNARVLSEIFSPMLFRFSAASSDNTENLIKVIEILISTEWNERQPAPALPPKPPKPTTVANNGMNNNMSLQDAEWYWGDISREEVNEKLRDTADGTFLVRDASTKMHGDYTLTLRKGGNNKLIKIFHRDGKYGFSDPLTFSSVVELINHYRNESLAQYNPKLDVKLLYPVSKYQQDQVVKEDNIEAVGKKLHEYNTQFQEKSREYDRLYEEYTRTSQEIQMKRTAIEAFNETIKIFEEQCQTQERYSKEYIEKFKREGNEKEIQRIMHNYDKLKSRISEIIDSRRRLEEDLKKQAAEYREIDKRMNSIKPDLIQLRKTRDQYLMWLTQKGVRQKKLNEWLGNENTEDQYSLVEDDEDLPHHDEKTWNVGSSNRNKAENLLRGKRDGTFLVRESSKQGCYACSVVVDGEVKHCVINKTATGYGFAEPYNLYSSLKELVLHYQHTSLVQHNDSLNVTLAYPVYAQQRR

A word on the inhibition: it is the drop in the measured response relative to a control, in per cent. A word on the melting point: it is the temperature, or range, at which the solid turns liquid. On to `COc1cccc(-c2nn(Cc3oc4ccccc4c(=O)c3-c3ccccc3)c3ncnc(N)c23)c1` [Example 52, 2-((4-Amino-3-(3-methoxyphenyl)-1H-pyrazolo[3,4-d]pyrimidin-1-yl)methyl)-3-phenyl-4H-chromen-4-one], for which the melting point was 111 to 115 °C. Also, at P110 δ/Pi3K δ, the inhibition at 1 µM was less than 50%.
Consider `COc1cccc(-c2nn(Cc3oc4ccccc4c(=O)c3-c3cccc(F)c3)c3ncnc(N)c23)c1` [Example 54, 2-((4-amino-3-(3-methoxyphenyl)-1H-pyrazolo[3,4-d]pyrimidin-1-yl)methyl)-3-(3-fluorophenyl)-4H-chromen-4-one], for which the melting point is 175 to 178 °C. The same molecule returned an inhibition at 1 µM against P110 δ/Pi3K δ of less than 50%.
In the case of `C[C@@H](Nc1ncnc2[nH]cnc12)c1oc2ccccc2c(=O)c1-c1cccc(F)c1` [Example 56, (R)-2-(1-(9H-purin-6-ylamino)ethyl)-3-(3-fluorophenyl)-4H-chromen-4-one], the melting point lay within 274 to 276 °C. On P110 δ/Pi3K δ, this molecule gave an inhibition at 1 µM of less than 50%.
For `Nc1ncnc2c1c(-c1cccnc1)nn2Cc1oc2ccccc2c(=O)c1-c1ccccc1` [Example 58, 2-((4-amino-3-(pyridin-3-yl)-1H-pyrazolo[3,4-d]pyrimidin-1-yl)methyl)-3-phenyl-4H-chromen-4-one], the melting point was in the range of 253 to 255 °C. The molecule further came in with an inhibition at 1 µM against P110 δ/Pi3K δ of less than 50%.
The molecule `Nc1ncnc2c1c(C#CCO)nn2Cc1oc2ccccc2c(=O)c1-c1ccccc1` [Example 59, 2-((4-amino-3-(3-hydroxyprop-1-ynyl)-1H-pyrazolo[3,4-d]pyrimidin-1-yl)methyl)-3-phenyl-4H-chromen-4-one] came in with a melting point of 171 to 173 °C. On P110 δ/Pi3K δ, the inhibition at 1 µM is 50 to 100% and the IC50 was 250 to 500 nM.
In turn, `Nc1ncnc2c1c(-c1cn[nH]c1)nn2Cc1oc2ccccc2c(=O)c1-c1ccccc1` [Example 60, 2-((4-amino-3-(1H-pyrazol-4-yl)-1H-pyrazolo[3,4-d]pyrimidin-1-yl)methyl)-3-phenyl-4H-chromen-4-one] had a melting point of 235 to 237 °C. Further, on P110 δ/Pi3K δ, the inhibition at 1 µM fell in the range of 50 to 100% and the IC50 is less than 250 nM.
On to `Nc1ncnc2c1c(-c1cccc(CO)c1)nn2Cc1oc2ccccc2c(=O)c1-c1ccccc1` [Example 61, 2-((4-amino-3-(3-(hydroxymethyl)phenyl)-1H-pyrazolo[3,4-d]pyrimidin-1-yl)methyl)-3-phenyl-4H-chromen-4-one], for which the melting point was in the range of 219 to 223 °C. Moreover, the inhibition at 1 µM against P110 δ/Pi3K δ is less than 50%.
Molecule `Nc1ncnc2c1c(-c1cccc3[nH]ncc13)nn2Cc1oc2ccccc2c(=O)c1-c1ccccc1` [Example 62, 2-((4-amino-3-(1H-indazol-4-yl)-1H-pyrazolo[3,4-d]pyrimidin-1-yl)methyl)-3-phenyl-4H-chromen-4-one] registered a melting point of 248 to 252 °C. This molecule also came in with an inhibition at 1 µM at P110 δ/Pi3K δ of less than 50%.
Take `Nc1ncnc2c1c(-c1cccc(F)c1)nn2Cc1oc2ccccc2c(=O)c1-c1ccccc1` [Example 63, 2-((4-amino-3-(3-fluorophenyl)-1H-pyrazolo[3,4-d]pyrimidin-1-yl)methyl)-3-phenyl-4H-chromen-4-one]: the melting point lay within 244 to 247 °C. Moreover, the inhibition at 1 µM against P110 δ/Pi3K δ was less than 50%.
On to `Nc1ncnc2c1c(CCCO)nn2Cc1oc2ccccc2c(=O)c1-c1ccccc1` [Example 64, 2-((4-amino-3-(3-hydroxypropyl)-1H-pyrazolo[3,4-d]pyrimidin-1-yl)methyl)-3-phenyl-4H-chromen-4-one], for which the melting point lay in the range of 182 to 184 °C. Also, on P110 δ/Pi3K δ, the inhibition at 1 µM is less than 50%.
`CC(=O)Nc1cccc(-c2nn(Cc3oc4ccccc4c(=O)c3-c3ccccc3)c3ncnc(N)c23)c1` [Example 65, N-(3-(4-amino-1-((4-oxo-3-phenyl-4H-chromen-2-yl)methyl)-1H-pyrazolo[3,4-d]pyrimidin-3-yl)phenyl)acetamide] came in with a melting point of 122 to 123 °C. Besides, the inhibition at 1 µM at P110 δ/Pi3K δ is less than 50%.
Turning to `Nc1ncnc2c1c(-c1cc(O)cc(F)c1)nn2Cc1oc2ccccc2c(=O)c1-c1ccccc1` [Example 66a, 2-((4-amino-3-(3-fluoro-5-hydroxyphenyl)-1H-pyrazolo[3,4-d]pyrimidin-1-yl)methyl)-3-phenyl-4H-chromen-4-one], the melting point fell in the range of 260 to 262 °C. Besides, on P110 δ/Pi3K δ, the inhibition at 1 µM lay in the range of 50 to 100% and the IC50 was less than 250 nM.
For the molecule `COc1cc(F)cc(-c2nn(Cc3oc4ccccc4c(=O)c3-c3cccc(F)c3)c3ncnc(N)c23)c1` [Example 67, 2-((4-amino-3-(3-fluoro-5-methoxyphenyl)-1H-pyrazolo[3,4-d]pyrimidin-1-yl)methyl)-3-(3-fluorophenyl)-4H-chromen-4-one], the melting point was in the range of 115 to 117 °C. Besides, at P110 δ/Pi3K δ, the inhibition at 1 µM was less than 50%.
For the molecule `CC(c1oc2ccccc2c(=O)c1-c1ccccc1)n1nc(-c2cn[nH]c2)c2c(N)ncnc21` (stereo not drawn) [Example 69, 2-(1-(4-amino-3-(1H-pyrazol-4-yl)-1H-pyrazolo[3,4-d]pyrimidin-1-yl)ethyl)-3-phenyl-4H-chromen-4-one], the melting point was in the range of 214 to 217 °C. The molecule also registered an inhibition at 1 µM against P110 δ/Pi3K δ of 50 to 100%.
Molecule `CC(c1oc2ccccc2c(=O)c1-c1ccccc1)n1nc(-c2ccc3cn[nH]c3c2)c2c(N)ncnc21` (stereo not drawn) [Example 70, 2-(1-(4-amino-3-(1H-indazol-6-yl)-1H-pyrazolo[3,4-d]pyrimidin-1-yl)ethyl)-3-phenyl-4H-chromen-4-one] yielded a melting point of 176 to 178 °C. This molecule also displayed an inhibition at 1 µM against P110 δ/Pi3K δ of 50 to 100%.
In turn, `CC(c1oc2ccccc2c(=O)c1-c1ccccc1)n1nc(C#CC(C)(C)O)c2c(N)ncnc21` (stereo not drawn) [Example 71, 2-(1-(4-amino-3-(3-hydroxy-3-methylbut-1-ynyl)-1H-pyrazolo[3,4-d]pyrimidin-1-yl)ethyl)-3-phenyl-4H-chromen-4-one] came in with a melting point of 109 to 113 °C. This molecule showed an inhibition at 1 µM against P110 δ/Pi3K δ of less than 50%.
`CC(c1oc2ccccc2c(=O)c1-c1cccc(F)c1)n1nc(-c2cn[nH]c2)c2c(N)ncnc21` (stereo not drawn) [Example 72, 2-(1-(4-amino-3-(1H-pyrazol-4-yl)-1H-pyrazolo[3,4-d]pyrimidin-1-yl)ethyl)-3-(3-fluorophenyl)-4H-chromen-4-one]: the melting point fell in the range of 223 to 226 °C. Moreover, on P110 δ/Pi3K δ, the inhibition at 1 µM lay in the range of 50 to 100% and the IC50 is less than 250 nM.
Molecule `C[C@H](Nc1ncnc2[nH]cnc12)c1oc2ccccc2c(=O)c1-c1ccccc1` [Example 73, (S)-2-(1-(9H-purin-6-ylamino)ethyl)-3-phenyl-4H-chromen-4-one] gave a melting point of 135 to 138 °C. At P110 δ/Pi3K δ, the inhibition at 1 µM was in the range of 50 to 100%.
Molecule `Nc1ncnc2c1c(-c1ccc3cn[nH]c3c1)nn2Cc1oc2ccccc2c(=O)c1-c1ccccc1` [Example 75, 2-((4-amino-3-(1H-indazol-6-yl)-1H-pyrazolo[3,4-d]pyrimidin-1-yl)methyl)-3-phenyl-4H-chromen-4-one] displayed a melting point of 140 to 143 °C. Besides, the inhibition at 1 µM against P110 δ/Pi3K δ is 50 to 100%.
As for `CC(c1oc2ccccc2c(=O)c1-c1cccc(F)c1)n1nc(-c2cc(O)cc(F)c2)c2c(N)ncnc21` (stereo not drawn) [Example 76a, 2-(1-(4-amino-3-(3-fluoro-5-hydroxyphenyl)-1H-pyrazolo[3,4-d]pyrimidin-1-yl)ethyl)-3-(3-fluorophenyl)-4H-chromen-4-one], the melting point fell in the range of 271 to 273 °C. The same molecule displayed an inhibition at 1 µM against P110 δ/Pi3K δ of 50 to 100%.
`CC(c1oc2ccccc2c(=O)c1-c1cccc(F)c1)n1nc(-c2cccc3[nH]ncc23)c2c(N)ncnc21` (stereo not drawn) [Example 77, 2-(1-(4-amino-3-(1H-indazol-4-yl)-1H-pyrazolo[3,4-d]pyrimidin-1-yl)ethyl)-3-(3-fluorophenyl)-4H-chromen-4-one] displayed a melting point of 231 to 233 °C. Also, on P110 δ/Pi3K δ, the inhibition at 1 µM was in the range of 50 to 100%.
In turn, `Cc1n[nH]c(C)c1-c1nn(C(C)c2oc3ccccc3c(=O)c2-c2cccc(F)c2)c2ncnc(N)c12` (stereo not drawn) [Example 78, 2-(1-(4-amino-3-(3,5-dimethyl-1H-pyrazol-4-yl)-1H-pyrazolo[3,4-d]pyrimidin-1-yl)ethyl)-3-(3-fluorophenyl)-4H-chromen-4-one] returned a melting point of 240 to 243 °C. The molecule also came in with an inhibition on P110 δ/Pi3K δ of less than 50%.
Molecule `CC(c1oc2ccccc2c(=O)c1-c1cccc(F)c1)n1nc(-c2ccc3cn[nH]c3c2)c2c(N)ncnc21` (stereo not drawn) [Example 80, 2-(1-(4-amino-3-(1H-indazol-6-yl)-1H-pyrazolo[3,4-d]pyrimidin-1-yl)ethyl)-3-(3-fluorophenyl)-4H-chromen-4-one] yielded a melting point of 206 to 208 °C. The same molecule registered an inhibition at P110 δ/Pi3K δ of less than 50%.
On to `CC(c1oc2ccccc2c(=O)c1-c1cccc(F)c1)n1nc(-c2ccccc2CO)c2c(N)ncnc21` (stereo not drawn) [Example 81, 2-(1-(4-amino-3-(2-(hydroxymethyl)phenyl)-1H-pyrazolo[3,4-d]pyrimidin-1-yl)ethyl)-3-(3-fluorophenyl)-4H-chromen-4-one], for which the melting point was 185 to 189 °C. The same molecule had an inhibition against P110 δ/Pi3K δ of less than 50%.
`CC(c1oc2ccccc2c(=O)c1-c1cccc(F)c1)n1nc(C#CCO)c2c(N)ncnc21` (stereo not drawn) [Example 83, 2-(1-(4-amino-3-(3-hydroxyprop-1-ynyl)-1H-pyrazolo[3,4-d]pyrimidin-1-yl)ethyl)-3-(3-fluorophenyl)-4H-chromen-4-one] displayed a melting point of 171 to 173 °C. On P110 δ/Pi3K δ, this molecule registered an inhibition of 50 to 100%.
